Assay [1] in a line: Nitrosamine formation during oxidation of dodecyldimethylamine with hydrogen peroxide under metal stress conditions, CDTMPA chelant, with free radical scavenger. As to conditions: for Nitrosamine content, total: MDNA + NDMA; for Nitrosamine content, total / Nitrosamine content, MDNA / Nitrosamine content, NDMA: 2.0 mmoles scavenger, CDTMPA, 60° C. then 75° C., total 4 hours; for Nitrosamine content, MDNA: methyldodecylnitrosamine; for Nitrosamine content, NDMA: nitrosodimethylamine; for reduction in nitrosamine formation: mixture already containing phosphonic acid chelating agent (CDTMPA), in words. On the procedure:
This Comparison and these Examples were each carried out using the following general method:-Dodecyldimethylamine (0.2012 moles, 42.94 g), and sufficient pure water to 150 g, ie approximately 106.9 g, were charged into a passivated 250 mL reaction flask, at ambient temperature together with 0.16 g of the stock metal solution described below to introduce 0.011 mmoles of transition metal impurities and thereby create stress conditions. […]
(§1) The stock metal solution was obtained by dissolving CuSO4.5H2O, 0.393 g, MnSO4.H2O, 0.1475 g, K2CrO4, 0.0935 g, Fe(NH4)2(SO4)2.6H2O, 3.5106 g, AlK(SO4)2.12H2O, 8.791 g in 500 mL water (deionized) containing 20 mL of 10%w/w sulfuric acid solution. It contained a total of 2350 ppm metals concentration. Thus, the concentration of metals in the reaction mixture was about 2.3 ppm.
(§2) The reaction mixture was then heated to a temperature of 60° C. and stirred. An aqueous hydrogen peroxide solution, 50% w/w solution, stabilized by sodium pyrophosphate at 70 ppm calculated as PO4, 15.03 g, was then delivered into the reaction mixture at a constant slow rate during the subsequent 45 minutes. In the Examples, but not in the Comparison, the hydrogen peroxide solution also contained 2.0 mmoles of a free radical scavenger, as specified below. When all the hydrogen peroxide had been introduced, the reaction temperature was increased to 75° C. and the reaction permitted to continue for a total of 4 hours. The mixture was then cooled and analyzed for yield of amine oxide and for the production of by-product volatile nitrosamines, specifically methyldodecylnitrosamine (MDNA) and nitrosodimethylamine (NDMA).

Assay [2] can be described thus: Nitrosamine formation during oxidation of dodecyldimethylamine with hydrogen peroxide under metal stress conditions, DTPA chelant, with free radical scavenger. As to conditions: for Nitrosamine content, total: MDNA + NDMA; for Nitrosamine content, total / Nitrosamine content, MDNA / Nitrosamine content, NDMA: 2.0 mmoles scavenger, DTPA 0.043 mmoles, 60° C. then 75° C., total 4 hours; for Nitrosamine content, MDNA: methyldodecylnitrosamine; for Nitrosamine content, NDMA: nitrosodimethylamine; for reduction in nitrosamine formation: mixture already containing carboxylate chelating agent (DTPA), in words. The protocol: This Comparison and these Examples were each carried out using the following general method:-Dodecyldimethylamine (0.2012 moles, 42.94 g), and sufficient pure water to 150 g, ie approximately 106.9 g, were charged into a passivated 250 mL reaction flask, at ambient temperature together with 0.16 g of the stock metal solution described below to introduce 0.011 mmoles of transition metal impurities and thereby create stress conditions. A chelating agent, DTPA, viz diethylenetriaminepentacarboxylic acid, 0.043 mmoles, was then introduced into the mixture to provide a mole ratio to the metal of about 4:1.
as §1, §2
The free radical scavengers were respectively 2,6-di-tert-butyl-4-methylphenol (BHT) in Ex2, butylated hydroxyanisole, a mixture of 2-tert-butylmethoxy anisole and 3-tert-butylmethoxy anisole (BHA) in Ex3, ethyl gallate (EtG) in Ex4 and propyl gallate (PrG) in Ex5.

From patent US5324857A, “Inhibition of the formation of nitrosamines” (Solvay Interox, priority 1992, dated 1994) come the findings set out here.

Turning to `O=C(O)CCSCCC(=O)O` [TPA, thiodipropionic acid], in assay [1], the “Nitrosamine content, total” value is reported as 541 ppb; the “Nitrosamine content, MDNA” value is listed as 444 ppb; the “Nitrosamine content, NDMA” value is 97 ppb.

Regarding `CCC(C)O` (stereo not shown) [BuL, 2-butanol], in assay [1], the “Nitrosamine content, total” value is reported as 1261 ppb; the “Nitrosamine content, MDNA” value is reported as 582 ppb; the “Nitrosamine content, NDMA” value was determined as 679 ppb.

As for `Cc1cc(C(C)(C)C)c(O)c(C(C)(C)C)c1` [BHT, 2,6-di-tert-butyl-4-methylphenol], in assay [2], the “Nitrosamine content, total” value came to 1794 ppb; the “Nitrosamine content, MDNA” value was 1420 ppb; the “Nitrosamine content, NDMA” value came to 374 ppb. In addition, in assay [1], the “Nitrosamine content, total” value is reported as 335 ppb; the “Nitrosamine content, MDNA” value was 212 ppb; the “Nitrosamine content, NDMA” value was 123 ppb.

For the molecule `CCCOC(=O)c1cc(O)c(O)c(O)c1` [PrG, propyl gallate], in assay [2], the “Nitrosamine content, total” value is 308 ppb; the “Nitrosamine content, MDNA” value amounted to 230 ppb; the “reduction in nitrosamine formation” value is on record as “marked reduction in nitrosamine formation”; the “Nitrosamine content, NDMA” value is on record as 78 ppb. In addition, in assay [1], the “Nitrosamine content, total” value turned out to be 80 ppb; the “Nitrosamine content, MDNA” value came to 59 ppb; the “reduction in nitrosamine formation” value is “marked reduction in nitrosamine formation”; the “Nitrosamine content, NDMA” value amounted to 21 ppb.

As for `COc1ccc(O)c(C(C)(C)C)c1` [BHA, butylated hydroxyanisole], in assay [2], the “Nitrosamine content, total” value came to 779 ppb; the “Nitrosamine content, MDNA” value is on record as 652 ppb; the “Nitrosamine content, NDMA” value stood at 127 ppb. Moreover, in assay [1], the “Nitrosamine content, total” value was determined as 276 ppb; the “Nitrosamine content, MDNA” value is reported as 151 ppb; the “Nitrosamine content, NDMA” value stood at 125 ppb.

For the molecule `CCOC(=O)c1cc(O)c(O)c(O)c1` [EtG, ethyl gallate], in assay [2], the “Nitrosamine content, total” value came to 407 ppb; the “Nitrosamine content, MDNA” value is 334 ppb; the “reduction in nitrosamine formation” value is “marked reduction in nitrosamine formation”; the “Nitrosamine content, NDMA” value was determined as 73 ppb. In addition, in assay [1], the “Nitrosamine content, total” value amounted to 87 ppb; the “Nitrosamine content, MDNA” value was 57 ppb; the “reduction in nitrosamine formation” value is recorded as “marked reduction in nitrosamine formation”; the “Nitrosamine content, NDMA” value was determined as 30 ppb.
